In data set [1] the target is T1, cloned human δ opioid receptor (Homo sapiens, UniProt P41143).
T1 construct: expressed in transfected cells
As to the kind of experiment: Inhibition of DPDPE-stimulated [35S]GTPγS binding. In kind it is biochemical. The settings on record: antagonism of agonist DPDPE; for Kb: read-out: δ, DPDPE Ke. For orientation: GTPγS resists hydrolysis and so accumulates on activated G proteins.

In data set [2] the target is T2, cloned human μ opioid receptor (Homo sapiens, UniProt P35372).
T2 construct: expressed in transfected cells
T2 sequence (P35372 whole entry): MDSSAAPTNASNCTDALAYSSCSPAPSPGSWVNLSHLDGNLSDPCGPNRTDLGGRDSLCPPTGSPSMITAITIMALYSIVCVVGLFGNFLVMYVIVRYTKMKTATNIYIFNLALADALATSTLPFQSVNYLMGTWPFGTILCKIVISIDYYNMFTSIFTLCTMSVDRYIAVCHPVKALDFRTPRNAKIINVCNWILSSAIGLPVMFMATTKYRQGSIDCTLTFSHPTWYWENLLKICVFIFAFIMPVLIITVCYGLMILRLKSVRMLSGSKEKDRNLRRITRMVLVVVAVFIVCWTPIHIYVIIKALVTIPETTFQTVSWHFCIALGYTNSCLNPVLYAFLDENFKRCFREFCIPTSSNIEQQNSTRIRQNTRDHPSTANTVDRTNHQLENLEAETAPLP
Description: Inhibition of DAMGO-stimulated [35S]GTPγS binding. In kind it is biochemical. The settings on record: antagonism of agonist DAMGO; for Kb: read-out: μ, DAMGO Ke.

For data set [3], the target named is T3, cloned human κ opioid receptor (Homo sapiens, UniProt P41145).
T3 construct: expressed in transfected cells
T3 sequence (P41145 whole entry): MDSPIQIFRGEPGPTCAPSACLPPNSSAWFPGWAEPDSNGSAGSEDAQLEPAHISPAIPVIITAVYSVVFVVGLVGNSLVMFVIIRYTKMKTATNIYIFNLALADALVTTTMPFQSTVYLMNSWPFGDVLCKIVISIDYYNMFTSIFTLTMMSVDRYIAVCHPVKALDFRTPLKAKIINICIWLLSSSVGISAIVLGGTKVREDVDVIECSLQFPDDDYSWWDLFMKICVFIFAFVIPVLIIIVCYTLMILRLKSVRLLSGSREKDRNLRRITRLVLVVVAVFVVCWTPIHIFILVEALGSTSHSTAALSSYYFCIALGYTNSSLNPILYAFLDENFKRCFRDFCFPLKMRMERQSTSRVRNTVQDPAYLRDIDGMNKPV
Description: Inhibition of U69,593-stimulated [35S]GTPγS binding. In kind it is biochemical. The settings on record: antagonism of agonist U69,593, [35S]GTPγS binding; for Kb: read-out: κ, U69,593 ke.

T1 sequence (P41143 whole entry): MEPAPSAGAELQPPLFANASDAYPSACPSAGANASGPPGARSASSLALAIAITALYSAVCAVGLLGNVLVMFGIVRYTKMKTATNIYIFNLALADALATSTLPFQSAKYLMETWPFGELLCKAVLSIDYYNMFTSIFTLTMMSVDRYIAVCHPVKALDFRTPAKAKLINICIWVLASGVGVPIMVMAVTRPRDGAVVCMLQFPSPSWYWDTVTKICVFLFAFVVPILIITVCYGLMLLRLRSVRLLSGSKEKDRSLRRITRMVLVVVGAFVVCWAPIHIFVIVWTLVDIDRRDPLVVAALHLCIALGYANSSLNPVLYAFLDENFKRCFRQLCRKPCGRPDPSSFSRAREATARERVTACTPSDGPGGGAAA

With `CC(C)[C@H](N)CN1CCN(c2cccc(O)c2)[C@@H](C)C1` [Compound 5i, 3-{(2S)-4-[(2S)-2-Amino-3-methylbutyl]-2-methylpiperazin-1-yl}phenol], the Kb in data set [1] turned out to be 55 nM; in data set [2] it was 2 nM; in data set [3] it was 10 nM.
Take `C[C@H]1CN(C)CCN1c1cccc(O)c1` [Compound 5f, (S)-3-(2,4-Dimethylpiperazin-1-yl)phenol]: the Kb stood at 508 ± 26 nM in data set [2] and 193 ± 19 nM in data set [3].
With `C[C@@H]1CN(CCCc2ccccc2)CCN1c1cccc(O)c1` [Compound 5c, (R)-3-(2-Methyl-4-phenylpropylpiperazin-1-yl)phenol], the Kb in data set [1] worked out at 7 ± 2 nM; in data set [2] it was 1 ± 0.2 nM; in data set [3], 1.5 ± 0.4 nM.
Take `CC(C)[C@@H](CN1CCN(c2cccc(O)c2)[C@@H](C)C1)NC(=O)[C@H]1Cc2ccc(O)cc2CN1` [Compound 5j, (3R)-7-Hydroxy-N-[(1S)-1-{[(3S)-4-(3-hydroxyphenyl)-3-methylpiperazin-1-yl]methyl}-2-methylpropyl]-1,2,3,4-tetrahydroisoquinoline-3-carboxamide]: the Kb in data set [1] was found to be 274 ± 48 nM; in data set [2] it was 22 ± 4 nM; in data set [3], 2.7 ± 0.1 nM.
For the molecule `C[C@@H]1CN(CCCc2ccccc2)[C@@H](C)CN1c1cccc(O)c1` [Compound 5h, 3-((2R,5S)-2,5-Dimethyl-4-(3-phenylpropyl)piperazin-1-yl)phenol], the results for the Kb in data set [1], in data set [2] and in data set [3] were 179 ± 68 nM, 18 ± 4 nM and 26 ± 7 nM, respectively.
Take `Oc1cccc(N2CCN(CCCc3ccccc3)CC2)c1` [Compound 5a, 3-(4-Phenylpropylpiperazin-1-yl)phenol]: the Kb is 34 ± 6 nM in data set [1], 8.5 ± 1.4 nM in data set [2] and 15 ± 3 nM in data set [3].
Consider `C[C@@H](N)CN1CCN(c2cccc(O)c2)[C@@H](C)C1` [Compound 31b, 3-{(2S)-4-[(2R)-2-amino-propyl]-2-methylpiperazin-1-yl}phenol], for which the melting point (usually the temperature, or range, at which the solid turns liquid) is 210 to 215 °C.
As to `C[C@H]1CN(CCCc2ccccc2)CCN1c1cccc(O)c1` [Compound 5b, (S)-3-(2-Methyl-4-phenylpropylpiperazin-1-yl)phenol], the Kb in data set [1] is on record as 13.4 nM; in data set [2] it was 0.88 nM; in data set [3] it was 4.09 nM.
Regarding `CCC1CN(CCCc2ccccc2)CCN1c1cccc(O)c1.Cl.Cl` (stereo not shown), the melting point lay within 161 to 166 °C.
For `C[C@H]1CN(c2cccc(O)c2)[C@@H](C)CN1CCCc1ccccc1` [Compound 5e, 3-[(2S,5S)-2,5-Dimethyl-4-(3-phenylpropyl)piperazin-1-yl]phenol], the Kb in data set [3] was determined as 7 ± 0.3 nM.
As to `CC1CN(CCCc2ccccc2)CC(C)N1c1cccc(O)c1` (stereo not shown) [Compound 5d, (Z)-3-(2,6-Dimethyl-4-(3-phenylpropyl)piperazin-1-yl)phenol], the values for the Kb in data set [1] and in data set [3] were 4300 nM and 3 nM, respectively.
Turning to `C[C@H]1CN(C)CC[C@@]1(C)c1cccc(O)c1` [Compound 2b, reference compound], the “δ, DPDPE Ke” value in data set [1] is 680 ± 240 nM. Besides, the “μ, DAMGO Ke” value in data set [2] amounted to 29 ± 3 nM. The “κ, U69,593 ke” value in data set [3] came to 155 ± 24 nM.
Regarding `CC1CN(CCCc2ccccc2)CCC1(C)c1cccc(O)c1` (stereo not shown) [Compound 2c, N-phenylpropyl 3,4-dimethyl-4-(3-hydroxyphenyl)piperidine, reference compound], the Kb in data set [1] is 0.9 ± 0.3 nM; in data set [2] it was 0.1 ± 0.02 nM; in data set [3], 0.88 ± 0.2 nM.
On the same counts, the results for `C[C@@H]1CN(c2cccc(O)c2)[C@@H](C)CN1CCCc1ccccc1` [Compound 5g, 3-((2S,5R)-2,5-Dimethyl-4-(3-phenylpropyl)piperazin-1-yl)phenol] are 55 ± 3 nM, 6.1 ± 1.7 nM and 4.2 ± 0.8 nM.

The values above are taken from patent publication US9750738B2, “Arylpiperazine opioid receptor antagonists” (RESEARCH TRIANGLE INSTITUTE, priority 2010, dated 2017).
